Data from patent US20080226682A1, “Immunoactive Compositions for Improved Oral Delivery of Vaccines and Therapeutic Agents” (PerOs Systems Technologies, Inc., priority 2007, published 2008).
Where two headings read alike, the source gives them in different places.

Legend:
[1] = tested on: LPS induced NO generation in RAW264.7 cells; assay: PUFA pretreatment, LPS induced NO generation in RAW264.7
canine immune cells = settings: purified isoflavone
[2] = tested on: PHA induced IFN-gamma production in calf PBMC; assay: PHA induced IFN-gamma production in calf PBMC; type: cell-based; settings: PHA-E+L 1 ug/ml, 3 days, FIG. 9
Experimental: Calf PBMC were isolated as described in Example 3. […] After incubation, supernatants were sampled. Supernatants from identical treatment wells were combined and stored frozen at −18±5° C. until tested for IFN-gamma. Supernatant samples were tested for bovine IFN-gamma using a commercial kit (Thermo Scientific). Briefly, plates were coated overnight with capture antibody in carbonate coating buffer. […] Plates were washed and treated with streptavidin-HRP for 30 minutes at RT. Plates were washed and substrate was added for 20 minutes at RT in the dark. Following incubation, stop solution was added to each well, and plates were read at 450 nm (550 nm reference wavelength). Data was plotted as Stimulation Index (IFN-gamma concentration of sample treated with isoflavone divided by IFN-gamma concentration of sample treated with PHA only) vs. isoflavone concentration. Since isoflavones dilutions were made in DMSO, the DMSO carrier was tested at the corresponding concentrations to determine the carrier effect.

shrimp immune cells = settings: purified isoflavone
equine immune cells = settings: purified isoflavone
bovine immune cells = settings: purified isoflavone
feline immune cells = settings: purified isoflavone
human immune cells = settings: purified isoflavone
salmon immune cells = settings: purified isoflavone
trout immune cells = type: cell-based; settings: purified isoflavone
Source text: The pellet is suspended in RPMI medium.

swine immune cells = settings: purified isoflavone
[3] = Plasma pharmacokinetics of antibiotics (HPLC); type: in vivo, Coho salmon (Oncorhynchus kisutch); settings: for AUC, times higher in Formula 2 than same concentration in commercial feed: oral, same dose in both; for Cmax / Tmax / AUC(0-t): plasma; for AUC(0-t): read-out: AUC(0-120 h)
Experimental: In the first study, Coho salmon (n-70 fish/group) were treated with flumequine at a dose of 30 mg/kg incorporated in commercial feed or in formula F2. In the second study, fish were treated orally with florfenicol, antibiotic was given at 15 mg/kg incorporated in commercial feed or at 15 and 50 mg/kg in formula F2. In addition, florfenicol was also given via i.p. injection at 20 mg/kg. At predetermined time periods post-administration, blood samples were collected via the caudal vein according to routine procedures. Levels of antibiotics in plasma of fish were determined by high performance liquid chromatography (HPLC).

[4] = tested on: LPS-induced NO generation in RAW264.7 cells; assay: LPS-induced NO generation in RAW264.7 cells (1 hour pretreatment with isoflavones or saponins); type: cell-based, murine
Experimental: In yet another exemplary embodiment, the ability of isoflavones to modulate the production of LPS-induced NO generation in RAW264.7 cells was investigated. […] Cells were incubated with isoflavones for 1 hour at 37±2° C.
Cells were incubated with saponins 1 hour at 37±2° C.

[5] = Blood glucose after oral administration of insulin; type: in vivo, CD1 mice; settings: FIG. 14
Experimental: Preparation of protease inhibitor extracts. Protease inhibitors (4.44 g beans and 0.56 g albumen) were homogenized in Tris-HCL buffer (pH 7.5). The mixture was divided in equal volumes, centrifuged (3500 RPM for 10 minutes) and supernatants were pooled together. Supernatant was then concentrated by centrifugation through 10K cut-off Millipore filter tubes.
Preparation of uptake-increasing agents solution. In a 15 ml falcon tube, 1 ml of carbonate-bicarbonate buffer (0.25 M, pH 9.5) was added to 45 mg of sodium deoxycholate and stirred until complete dissolution. In another 15 ml falcon tube, 7 ml of carbonate-bicarbonate buffer (0.25 M, pH 9.5) was added to 450 mg of EDTA and stirred until complete dissolution. Both solutions were then pooled together.
Final preparation of liquid formulation. […] The liquid formulation was then kept at 4° C. until use.
Experimental Design. Twenty four female CD1 mice of an average weight of 30 g were used in this study (see Table 14 for the identification of experimental groups). […]
CD1 mice were gavaged with insulin (200 U/kg) incorporated in a liquid composition (group A) and in water (group B). […] At determined time periods post-administration (see Table 13), blood samples were taken via the retroorbital sinus and blood glucose levels were measured individually for each animal using an Ascencia™ DEX-2 blood glucose meter kit.

[6] = po, 15 mg/kg, oral in Oralject ™ (F2)
[7] = po, 15 mg/kg, oral in commercial feed
[8] = po, 50 mg/kg, oral in Oralject ™ (F2)
[9] = po, 30 mg/kg, oral in Oralject ™ (F2)
[10] = po, 30 mg/kg, oral in commercial feed

CC/C=C\C/C=C\C/C=C\C/C=C\C/C=C\CCCCCC(=O)O [DPA, docosapentaenoic acid]
inhibition (text: of proliferation; FIG. 8: of LPS induced NO production) ([1]; 1 μM PUFA, 24 hours pretreatment, LPS 1 μg/ml 8 hours): 40% | fold more effective at inhibiting than the N-6 PUFA, AA ([1]; FIG. 8): 10-100 fold

O=c1c(-c2ccc(O)cc2)coc2cc(O)ccc12 [daidzein]
Cytokine Secretion Profile (determined by RT-PCR) (canine immune cells): None | effect on stimulation indices (IFN-gamma) compared to DMSO control ([2]; 10 nM or 100 nM isoflavone): pronounced decrease | effect on stimulation indices (IFN-gamma) compared to DMSO control ([2]; 1 μM isoflavone): pronounced increase | effect on stimulation indices (IFN-gamma) compared to DMSO control ([2]; 100 μM isoflavone): inhibitory effect | Cytokine Secretion Profile (determined by RT-PCR) (shrimp immune cells): IFN-gamma | Cytokine Secretion Profile (determined by RT-PCR) (equine immune cells): None | Cytokine Secretion Profile (determined by RT-PCR) (bovine immune cells): IL-10 | Cytokine Secretion Profile (determined by RT-PCR) (feline immune cells): IL-4 | Cytokine Secretion Profile (determined by RT-PCR) (human immune cells): IFN-gamma | Cytokine Secretion Profile (determined by RT-PCR) (salmon immune cells): IFN-gamma | Cytokine Secretion Profile (determined by RT-PCR) (trout immune cells): IFN-gamma | Cytokine Secretion Profile (determined by RT-PCR) (swine immune cells): None

CS(=O)(=O)c1ccc([C@@H](O)[C@@H](CF)NC(=O)C(Cl)Cl)cc1 [Florfenicol]
AUC, times higher in Formula 2 than same concentration in commercial feed [3]: 5.2 times | Cmax ([3]; ip, 20 mg/kg, i.p. injection): 7050 ng/mL | Tmax ([3]; ip, 20 mg/kg, i.p. injection): 4 h | AUC(0-t) ([3]; ip, 20 mg/kg, i.p. injection, 20 mg/kg): 196000 ng·h/mL | Cmax [3, 6]: 2150 ng/mL | Tmax [3, 6]: 16 h | AUC(0-t) ([3]; po, 15 mg/kg, oral in Oralject ™ (F2), 15 mg/kg): 34400 ng·h/mL | Cmax [3, 7]: 1380 ng/mL | Tmax [3, 7]: 8 h | AUC(0-t) ([3]; po, 15 mg/kg, oral in commercial feed, 15 mg/kg): 6700 ng·h/mL | Cmax [3, 8]: 7960 ng/mL | Tmax [3, 8]: 6 h | AUC(0-t) ([3]; po, 50 mg/kg, oral in Oralject ™ (F2), 50 mg/kg): 136000 ng·h/mL

CCCCC/C=C\C/C=C\C/C=C\C/C=C\CCCC(=O)O [AA, arachidonic acid]
concentration required to inhibit to a similar level (40%) ([1]; 24 hours pretreatment, LPS 1 μg/ml 8 hours): 100 µM | immunomodulatory activity ([1]; FIG. 8): marginal to no immunomodulatory activity

O=c1c(-c2ccc(O)cc2)coc2cc(O)cc(O)c12 [genistein, 4′5,7-trihydroxyisoflavone]
Cytokine Secretion Profile (determined by RT-PCR) (canine immune cells): None | effect on stimulation indices (IFN-gamma) compared to DMSO control ([2]; 10 nM or 100 nM isoflavone): pronounced decrease | effect on stimulation indices (IFN-gamma) compared to DMSO control ([2]; 1 μM isoflavone): pronounced increase | effect on stimulation indices (IFN-gamma) compared to DMSO control ([2]; 100 μM isoflavone): no effect | Cytokine Secretion Profile (determined by RT-PCR) (shrimp immune cells): None | Cytokine Secretion Profile (determined by RT-PCR) (equine immune cells): None | Cytokine Secretion Profile (determined by RT-PCR) (bovine immune cells): IL-10 | Cytokine Secretion Profile (determined by RT-PCR) (feline immune cells): None | Cytokine Secretion Profile (determined by RT-PCR) (human immune cells): IL-10 | Cytokine Secretion Profile (determined by RT-PCR) (salmon immune cells): IL-10 | Cytokine Secretion Profile (determined by RT-PCR) (trout immune cells): IL-4, IL-10 | Cytokine Secretion Profile (determined by RT-PCR) (swine immune cells): IL-4

CC1(C)C[C@@H](O)[C@]2(C)CC[C@]3(C)C(=CC[C@@H]4[C@@]5(C)CC[C@H](O)[C@](C)(CO)[C@@H]5CC[C@]43C)[C@@H]2C1 [sapogenol B, Sapogenol B]
rank of inhibitory potency among saponins ([4]; FIG. 11): most potent inhibitor | inhibition of LPS-induced NO production ([4]; lowest concentrations, FIG. 11): Zero to minimal inhibition | inhibitory effect on LPS-induced NO production ([4]; saponins in DMSO, FIG. 11): inhibited LPS-induced NO production

insulin: Human recombinant insulin (Sigma, #I2643)
effect on blood glucose levels ([5]; 200 U/kg oral gavage in liquid composition (Formula 2)): markedly reduced blood glucose levels | effect on blood glucose levels ([5]; 200 U/kg oral gavage in water): no efficacy in reducing glucose levels

COc1ccc(-c2coc3cc(O)cc(O)c3c2=O)cc1 [biochanin A, 5,7-dihydroxy 4′-methoxy isoflavone]
Cytokine Secretion Profile (determined by RT-PCR) (canine immune cells): IL-4, IL-10 | effect on stimulation indices (IFN-gamma) compared to DMSO control ([2]; 1 μM isoflavone): pronounced increase | effect on stimulation indices (IFN-gamma) compared to DMSO control ([2]; 100 μM isoflavone): inhibitory effect | Cytokine Secretion Profile (determined by RT-PCR) (shrimp immune cells): None | Cytokine Secretion Profile (determined by RT-PCR) (equine immune cells): IL-10 | Cytokine Secretion Profile (determined by RT-PCR) (bovine immune cells): None | Cytokine Secretion Profile (determined by RT-PCR) (feline immune cells): IL-4, IL-10 | Cytokine Secretion Profile (determined by RT-PCR) (human immune cells): none | Cytokine Secretion Profile (determined by RT-PCR) (salmon immune cells): IL-4 | Cytokine Secretion Profile (determined by RT-PCR) (trout immune cells): None | fold higher inhibitory activity compared to daidzein or genistein ([4]; 25 μM, FIG. 10): approximately 10 fold | Cytokine Secretion Profile (determined by RT-PCR) (swine immune cells): None

CC1CCc2cc(F)cc3c(=O)c(C(=O)O)cn1c23 (stereo not shown) [Flumequine]
peak plasma concentration, fold higher via Formula 2 than with commercial feed ([3]; 30 mg/kg oral, FIG. 17): approximately 5 fold | AUC, times higher in Formula 2 than same concentration in commercial feed [3]: 3.7 times | Cmax [3, 9]: 440 ng/mL | Tmax [3, 9]: 2 h | AUC(0-t) ([3]; po, 30 mg/kg, oral in Oralject ™ (F2), 30 mg/kg): 61900 ng·h/mL | Cmax [3, 10]: 2290 ng/mL | Tmax [3, 10]: 8 h | AUC(0-t) ([3]; po, 30 mg/kg, oral in commercial feed, 30 mg/kg): 16800 ng·h/mL

CCCCC/C=C\C/C=C\CCCCCCCC(=O)O [LA, linoleic acid]
immunomodulatory activity ([1]; FIG. 8): marginal to no immunomodulatory activity
